Values of other authors in patent US20200020419A1, “METHODS OF ANALYZING CELLS” (Flagship Pioneering Innovations VI, LLC., priority 2018, published 2020).

SMILES	induction of transition of a mouse progenitor cell into a mouse neuron, known in the literature (mouse “progenitor” cell)	induction of transition of a MEF into a mouse progenitor cell, known in the literature (MEF)
Cc1ccc(-c2nn(C(C)(C)C)c3ncnc(N)c23)cc1 [PP1]	known in the literature to be associated with induction of transition of a mouse “progenitor” cell into a mouse neuron	–
CC(C)(C)n1nc(-c2ccc(Cl)cc2)c2c(N)ncnc21 [PP2]	known in the literature to be associated with induction of transition of a mouse “progenitor” cell into a mouse neuron	–
CC(/C=C/C(=O)NO)=C\[C@@H](C)C(=O)c1ccc(N(C)C)cc1 [Trichostatin A]	–	known in the literature to be associated with induction of transition of a MEF into a mouse “progenitor” cell
